Measured values as given in patent publication US20250223268A1, “4-Methylsulfonylbenzamide Compound, Preparation Method, Herbicidal Composition And Use” (Jiangsu Flag Chemical Industry Co., Ltd., priority 2022, published 2025).

Legend:
Type in all cases: in vivo
[1] = system: Oryza sativa subsp. japonica; test: Greenhouse herbicidal activity and crop safety comparison (Test Example 2); conditions: Rate 150 g/ha
Procedure, shortened: (§1)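 Fresh weight inhibition, banded into grades A to E (E <20%), was rated 14-21 days after foliar spraying of 3-6 leaf plants, or 14-30 days after a soil spray applied 24 h post-sowing.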

Echinochloa crusgalli [2] = test: as above; conditions: Rate 150 g/ha
Procedure, shortened: as §1

[3] = system: Oryza sativa subsp. indica; test: as above; conditions: Rate 150 g/ha
Procedure, shortened: as §1

Leptochloa chinensis [4] = test: as above; conditions: Rate 150 g/ha
Procedure, shortened: as §1

Eclipta prostrata = test: Greenhouse herbicidal activity assay, post-emergence; conditions: Post-emergence test, rate 150 g a.i./hm^2; grade by fresh weight inhibition rate
Procedure, shortened: (§2)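 Weeds and crops grown in pots of nutrient soil in a growth chamber to the 3-6 leaf stage, then foliar-sprayed and air-dried. Fresh weight inhibition scored 14-21 days after treatment and graded A (≥80%) through E (<20%).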

Digitaria sanguinalis = test: as above; conditions: Post-emergence test, rate 150 g a.i./hm^2; grade by fresh weight inhibition rate
Procedure, shortened: as §2

Cyperus iria = test: as above; conditions: Post-emergence test, rate 150 g a.i./hm^2; grade by fresh weight inhibition rate
Procedure, shortened: as §2

Echinochloa crusgalli [5] = test: as above; conditions: Post-emergence test, rate 150 g a.i./hm^2; grade by fresh weight inhibition rate
Procedure, shortened: as §2

Leptochloa chinensis [6] = test: as above; conditions: Post-emergence test, rate 150 g a.i./hm^2; grade by fresh weight inhibition rate
Procedure, shortened: as §2

Row | SMILES | Oryza sativa subsp. japonica, grading of fresh weight inhibition rate (crop safety) [1] | Echinochloa crusgalli, control efficacy grading (fresh weight inhibition rate) (Echinochloa crusgalli [2]) | Oryza sativa subsp. indica, grading of fresh weight inhibition rate (crop safety) [3] | Leptochloa chinensis, control efficacy grading (fresh weight inhibition rate) (Leptochloa chinensis [4]) | Control efficacy grade, Eclipta prostrata (Eclipta prostrata) | Control efficacy grade, Digitaria sanguinalis (Digitaria sanguinalis) | Control efficacy grade, Cyperus iria (Cyperus iria) | Control efficacy grade, Echinochloa crusgalli (Echinochloa crusgalli [5]) | Control efficacy grade, Leptochloa chinensis (Leptochloa chinensis [6])
1 | CCC(C)S(=O)(=O)c1c(S(C)(=O)=O)ccc(C(=O)Nc2nnc(C)o2)c1Cl (racemic) [Compound 3-24] | E (Fresh weight inhibition rate<20%) | A (Fresh weight inhibition rate≥80% to 100%) | E (Fresh weight inhibition rate<20%) | A (Fresh weight inhibition rate≥80% to 100%) | A (Fresh weight inhibition rate≥80% to 100%) | A (Fresh weight inhibition rate≥80% to 100%) | A (Fresh weight inhibition rate≥80% to 100%) | A (Fresh weight inhibition rate≥80% to 100%) | A (Fresh weight inhibition rate≥80% to 100%)
2 | CCC(C)S(=O)(=O)c1c(S(C)(=O)=O)ccc(C(=O)Nc2nnco2)c1Cl (racemic) [Compound 3-290] | E (Fresh weight inhibition rate<20%) | A (Fresh weight inhibition rate≥80% to 100%) | E (Fresh weight inhibition rate<20%) | A (Fresh weight inhibition rate≥80% to 100%) | A (Fresh weight inhibition rate≥80% to 100%) | A (Fresh weight inhibition rate≥80% to 100%) | A (Fresh weight inhibition rate≥80% to 100%) | A (Fresh weight inhibition rate≥80% to 100%) | A (Fresh weight inhibition rate≥80% to 100%)
3 | CCc1nnc(NC(=O)c2ccc(S(C)(=O)=O)c(S(=O)(=O)C(C)CC)c2Cl)o1 (racemic) [Compound 3-406] | E (Fresh weight inhibition rate<20%) | A (Fresh weight inhibition rate≥80% to 100%) | E (Fresh weight inhibition rate<20%) | A (Fresh weight inhibition rate≥80% to 100%) | A (Fresh weight inhibition rate≥80% to 100%) | A (Fresh weight inhibition rate≥80% to 100%) | A (Fresh weight inhibition rate≥80% to 100%) | A (Fresh weight inhibition rate≥80% to 100%) | A (Fresh weight inhibition rate≥80% to 100%)
4 | Cc1nnc(NC(=O)c2ccc(S(C)(=O)=O)c(S(=O)(=O)Cc3ccccc3)c2Cl)o1 [Compound 3-71] | E (Fresh weight inhibition rate<20%) | C (Fresh weight inhibition rate≥40% to <60%) | E (Fresh weight inhibition rate<20%) | A (Fresh weight inhibition rate≥80% to 100%) | A (Fresh weight inhibition rate≥80% to 100%) |  | A (Fresh weight inhibition rate≥80% to 100%) |  | A (Fresh weight inhibition rate≥80% to 100%)
5 | Cc1nnc(NC(=O)c2ccc(S(C)(=O)=O)c(S(=O)(=O)C3CCCCC3)c2Cl)o1 [Compound 3-96] | E (Fresh weight inhibition rate<20%) | C (Fresh weight inhibition rate≥40% to <60%) | E (Fresh weight inhibition rate<20%) | A (Fresh weight inhibition rate≥80% to 100%) | A (Fresh weight inhibition rate≥80% to 100%) |  | A (Fresh weight inhibition rate≥80% to 100%) |  | A (Fresh weight inhibition rate≥80% to 100%)
6 | C#CCS(=O)(=O)c1c(S(C)(=O)=O)ccc(C(=O)Nc2nnc(C)o2)c1Cl [Compound 3-151] | E (Fresh weight inhibition rate<20%) |  | E (Fresh weight inhibition rate<20%) | A (Fresh weight inhibition rate≥80% to 100%) | A (Fresh weight inhibition rate≥80% to 100%) | B (Fresh weight inhibition rate≥260% to <80%) | A (Fresh weight inhibition rate≥80% to 100%) | B (Fresh weight inhibition rate≥260% to <80%) | A (Fresh weight inhibition rate≥80% to 100%)
7 | Cc1nnc(NC(=O)c2ccc(S(C)(=O)=O)c(S(=O)(=O)CCC#N)c2Cl)o1 [Compound 3-201] | E (Fresh weight inhibition rate<20%) | C (Fresh weight inhibition rate≥40% to <60%) | E (Fresh weight inhibition rate<20%) | A (Fresh weight inhibition rate≥80% to 100%) | A (Fresh weight inhibition rate≥80% to 100%) |  | A (Fresh weight inhibition rate≥80% to 100%) |  | A (Fresh weight inhibition rate≥80% to 100%)
8 | CCc1nnc(NC(=O)c2ccc(S(C)(=O)=O)c(S(=O)(=O)CC(F)(F)F)c2Cl)o1 [Compound 3-443] | E (Fresh weight inhibition rate<20%) | C (Fresh weight inhibition rate≥40% to <60%) | E (Fresh weight inhibition rate<20%) | A (Fresh weight inhibition rate≥80% to 100%) | A (Fresh weight inhibition rate≥80% to 100%) |  | A (Fresh weight inhibition rate≥80% to 100%) |  | A (Fresh weight inhibition rate≥80% to 100%)
9 | CC(C)c1nnc(NC(=O)c2ccc(S(C)(=O)=O)c(S(=O)(=O)CC3CC3)c2Cl)o1 [Compound 3-534] | E (Fresh weight inhibition rate<20%) |  | E (Fresh weight inhibition rate<20%) | A (Fresh weight inhibition rate≥80% to 100%) | A (Fresh weight inhibition rate≥80% to 100%) | B (Fresh weight inhibition rate≥260% to <80%) | A (Fresh weight inhibition rate≥80% to 100%) | B (Fresh weight inhibition rate≥260% to <80%) | B (Fresh weight inhibition rate≥260% to <80%)
10 | CC(C)c1nnc(NC(=O)c2ccc(S(C)(=O)=O)c(S(=O)(=O)C3CC3)c2Cl)o1 [Compound 3-539] | E (Fresh weight inhibition rate<20%) |  | E (Fresh weight inhibition rate<20%) | A (Fresh weight inhibition rate≥80% to 100%) |  | B (Fresh weight inhibition rate≥260% to <80%) | B (Fresh weight inhibition rate≥260% to <80%) | B (Fresh weight inhibition rate≥260% to <80%) | A (Fresh weight inhibition rate≥80% to 100%)
11 | CS(=O)(=O)c1ccc(C(=O)Nc2nnc(C3CC3)o2)c(Cl)c1S(=O)(=O)CC1CC1 [Compound 3-650] | E (Fresh weight inhibition rate<20%) |  | E (Fresh weight inhibition rate<20%) | B (Fresh weight inhibition rate≥260% to <80%) | A (Fresh weight inhibition rate≥80% to 100%) | A (Fresh weight inhibition rate≥80% to 100%) | A (Fresh weight inhibition rate≥80% to 100%) | B (Fresh weight inhibition rate≥260% to <80%) | A (Fresh weight inhibition rate≥80% to 100%)
12 | CS(=O)(=O)c1ccc(C(=O)Nc2nnc(C3CC3)o2)c(Cl)c1S(=O)(=O)C1CCC1 [Compound 3-660] | E (Fresh weight inhibition rate<20%) | C (Fresh weight inhibition rate≥40% to <60%) | E (Fresh weight inhibition rate<20%) | A (Fresh weight inhibition rate≥80% to 100%) | A (Fresh weight inhibition rate≥80% to 100%) |  | A (Fresh weight inhibition rate≥80% to 100%) |  | A (Fresh weight inhibition rate≥80% to 100%)
